Measurements as given in patent publication US9429582B2, “Tyrosine-phosphorylated WBP2, a novel cancer target and biomarker” (National University of Singapore, priority 2010, dated 2016).
Read-outs that look alike come from different tables or passages of the source.

Experiments:
Type in all cases: cell-based, human
[1] = system: WBP2-Y192-231E mutant-expressing MCF7; assay: Cell proliferation (MTS / cell numbers) of WBP2-Y192-231E mutant-expressing MCF7
Method: (§1) A: Whole cell lysates from vector, WBP2-WT, WBP2-Y192-231E mutant and WBP2-Y192-231F mutant expressing MCF7 or Y192-231E mutant expressing MCF7 with WBP2 knockdown were used for IB analysis with antibodies indicated. B: Vector, WBP2-WT, WBP2-Y192-231E mutant or WBP2-Y192-231F mutant-expressing MCF7 were co-transfected with TOPFlash (top panel) or ERE-Luciferase (bottom panel) reporter construct. For cells co-transfected ERE-luciferase, they were either left alone or stimulated with 50 ng/ml Wnt3a ligand for 16 hrs. TCF/ERα luciferase activities in various conditions were then assayed. **P<0.01, ***P<0.001, Student's t-test (2-tailed). C: Vector or WBP2-Y192-231E mutant-expressing MCF7 were treated with indicated concentrations of Tamoxifen(Tam) and/or FH535. Cell numbers were measured. D: Whole cell lysates from WBP2-Y192-231E mutant-expressing MCF7 treated with 2 μM Tam and/or 15 μM FH5353 were harvested at day 2-4 post-treatment and used for IB analysis with antibodies indicated.
Effect of knockdown of E2F1 and E2F3 on MCF7 cells overexpressing WBP2-Y192-231E. A. MCF7 cells expressing WBP2-Y192-231E were transfected with indicated siRNAs and knockdown efficiency was confirmed using western blotting. B. Cells were co-transfected with indicated siRNAs and E2F reporter plasmid and harvested for luciferase assay after 48 hours. Luciferase readings were normalized against constitutive TK promoter renilla luciferase readings. C. Cells were transfected with indicated siRNAs and BrdU incorporation assay was performed. Percentages of BrdU positive cells relative to control siRNA treated cells were plotted as bar charts. D. Cells were transfected with indicated siRNAs. MTS assay was performed on day 3. Percentages of cell proliferation relative to control siRNA treated cells were plotted as bar charts.
Whole cell lysates from vector, WBP2-WT, WBP2-Y192-231E mutant and WBP2-Y192-231F mutant expressing MCF7 (A) or Y192-231E mutant expressing MCF7 with WBP2 knockdown (B) were used for IB analysis with antibodies indicated. Their expression levels were quantified in three independent experiments and the averages were presented relative to actin. Representative blots (order in lanes from left to right: vector, WBP2, Y192-231E, Y192F) were presented as insets to the bar graphs. **P<0.01, ***P<0.001, Student's t-test (2-tailed) relative to vector. Vector, WBP2-WT, WBP2-Y192-231E mutant or WBP2-Y192-231F mutant-expressing MCF7 were cotransfected with TOPFlash(C) or ERE-Luciferase(D) reporter construct. For cells co-transfected ERE luciferase, they were either left alone or stimulated with 50 ng/ml Wnt3a ligand for 16 hrs. TCF(C)/ER[…](D) luciferase activities in various conditions were then assayed and analyzed in relative to untreated vector control. **P<0.01, ***P<0.001, Student's t-test (2-tailed). E: Vector or WBP2-Y192-231E mutant-expressing MCF7 were treated with indicated concentrations of 2 µM tamoxifen (Tam) and/or 15 µM FH535 for 4 days. Cell numbers were measured daily and compared in relative to vehicle treated vector-expressing cells on Day 0. F: Vector or WBP2-Y192-231E mutant-expressing MCF7 were treated with indicated concentrations (0-50 µM) of FH535 for 2 days. Cell numbers were measured and compared in relative to vehicle-treated cells. Their […] were analyzed statistically with SPSS 13.0. G: Whole cell lysates from WBP2-Y192-231E mutant-expressing MCF7 treated with 2 μM Tam and/or 15 μM FH5353 were harvested at day 2-4 post-treatment and used for IB analysis with antibodies indicated. H: Vector or WBP2-Y192-231E mutant-expressing MCF7 were treated with indicated concentrations of 100 nM fulvestrant and/or 15 µM FH535 for 4 days. Cell numbers were measured on day 2 and day 4 and compared in relative to vehicle-treated control at each day (Top Panel). These treated cells were harvested for IB analysis with antibodies indicated (Bottom Panel). […]

ERα = assay: Immunoblot of ERα expression in drug-treated WBP2-Y192-231E mutant-expressing MCF7
Method: For cells co-transfected ERE-luciferase, they were either left alone or stimulated with 50 ng/ml Wnt3a ligand for 16 hrs. TCF/ERα luciferase activities in various conditions were then assayed. **P<0.01, ***P<0.001, Student's t-test (2-tailed). […] Cell numbers were measured.
Their expression levels were quantified in three independent experiments and the averages were presented relative to actin. […] For cells co-transfected ERE luciferase, they were either left alone or stimulated with 50 ng/ml Wnt3a ligand for 16 hrs. TCF(C)/ER[…](D) luciferase activities in various conditions were then assayed and analyzed in relative to untreated vector control. **P<0.01, ***P<0.001, Student's t-test (2-tailed). […] Cell numbers were measured daily and compared in relative to vehicle treated vector-expressing cells on Day 0. […] Cell numbers were measured and compared in relative to vehicle-treated cells. […] Cell numbers were measured on day 2 and day 4 and compared in relative to vehicle-treated control at each day (Top Panel). These treated cells were harvested for IB analysis with antibodies indicated (Bottom Panel).
First, we exposed WBP2 phospho-mimic expressing MCF7 cells to serial concentrations of fulvestrant (0.1 nM, 1 nM, 10 nM, 100 nM and 1 μM) and probed for ERα expression to determine the effective working concentration. […] Next, we compared the growth and proliferation of WBP2 phospho-mimic mutant expressing MCF7 in the presence of 100 nM fulvestrant or 15 μM FH535.

vector-expressing MCF7 = assay: Cell proliferation (MTS / cell numbers) of vector-expressing MCF7; settings: Homo sapiens, 96 h; MCF7 cells expressing vector; day 4; 100 nM fulvestrant or 15 μM FH535; read-out: inhibition of growth / reduction of proliferation
Method: as §1
Whole cell lysates from vector, WBP2-WT, WBP2-Y192-231E mutant and WBP2-Y192-231F mutant expressing MCF7 (A) or Y192-231E mutant expressing MCF7 with WBP2 knockdown (B) were used for IB analysis with antibodies indicated. Their expression levels were quantified in three independent experiments and the averages were presented relative to actin. Representative blots (order in lanes from left to right: vector, WBP2, Y192-231E, Y192F) were presented as insets to the bar graphs. **P<0.01, ***P<0.001, Student's t-test (2-tailed) relative to vector. […] TCF(C)/ER[…](D) luciferase activities in various conditions were then assayed and analyzed in relative to untreated vector control. **P<0.01, ***P<0.001, Student's t-test (2-tailed). […] Cell numbers were measured daily and compared in relative to vehicle treated vector-expressing cells on Day 0. […] Cell numbers were measured and compared in relative to vehicle-treated cells. Their […] were analyzed statistically with SPSS 13.0. […] Cell numbers were measured on day 2 and day 4 and compared in relative to vehicle-treated control at each day (Top Panel). […]

CC/C(=C(\c1ccccc1)c1ccc(OCCN(C)C)cc1)c1ccccc1 [Tamoxifen]
growth inhibition ([1]; Y192-231E-expressing MCF7 treated with Tamoxifen): No significant growth inhibition
retardation of proliferation ([1]; Y192-231E-expressing cells, higher doses of up to 2000 nM): unremarkable
ERα expression (ERα): but not Tamoxifen significantly reduced

C[C@]12CC[C@@H]3c4ccc(O)cc4C[C@@H](CCCCCCCCC[S+]([O-])CCCC(F)(F)C(F)(F)F)[C@H]3[C@@H]1CC[C@@H]2O (stereo partly drawn) [fulvestrant]
inhibition at 0.1 µM ([1]; Homo sapiens, 96 h, MCF7 cells expressing Y192-231E mutant, day 4, 100 nM fulvestrant or 15 μM FH535, read-out: inhibition of growth / reduction of proliferation): ~40%
ERα expression (ERα; WBP2 phospho-mimic expressing MCF7, one hundred nM fulvestrant, data not shown): almost completely abolished
inhibition at 0.1 µM (vector-expressing MCF7): ~50%
